Values of other authors in US20100049492A1, “METHOD AND APPARATUS FOR MODELING SKIN SENSITIZATION” (Entelos, Inc., priority 2006, published 2010).

Test system: lymph node (LN) proliferation
Settings: categories based on data available in the public domain

SMILES | chemical category (skin sensitizer strength)
O=C/C=C/c1ccccc1 [cinnamic aldehyde] | moderate sensitizers
CCO/C=C1\N=C(c2ccccc2)OC1=O [oxazalone] | strong sensitizers
Nc1ccc(C(=O)O)cc1 [PABA] | non-sensitizers
CC=Cc1ccc(O)c(OC)c1 [isoeugenol] | moderate sensitizers
CCCCCCCC/C=C\CCCCCCCC(=O)OCCOCC(OCCO)C1OCC(OCCO)C1OCCO (stereo not drawn) [Tween 80] | non-sensitizers
Oc1ccc(O)cc1 [hydroquinone] | strong sensitizers
